Test [1] deals with LoVo. Nature of the test: In vitro cytotoxic activity against human colon adenocarcinoma (LoVo) cells. Type of test: functional, cell-based.
A short description of test [2]: Resistance index was determined by ratio of cytotoxicities of human colon adenocarcinoma (LoVo) cells to human colon adenocarcinoma resistant to doxorubicin (LoVo Dx) cells. Type of test: functional.
The test system of test [3] is LoVo. The experiment in a line: In vitro cytotoxic activity against human colon adenocarcinoma resistant to doxorubicin (LoVo Dx) cells. Type of test: functional, cell-based.
For test [4], the system named is L1210. Nature of the test: In vitro cytotoxic activity against murine leukemia L1210 cells. Conditions: Mus musculus. It counts as functional, cell-based.
In test [5] the test system is LoVo. Nature of the test: In vitro cytotoxic activity against human colon adenocarcinoma (LoVo) cells. It counts as functional, cell-based.
Test [6] in a line: In vitro cytotoxic activity against sarcoma resistant to doxorubicin S-180 Dx cells. It counts as functional, cell-based. To be noted: Mus musculus.
Test [7] in a line: In vitro cytotoxic activity against sarcoma S-180 cells. Type of test: functional, cell-based. Conditions: Mus musculus.
Test [8] relates to LoVo. The experiment in a line: In vitro cytotoxic activity against human colon adenocarcinoma resistant to doxorubicin (LoVo Dx) cells. Type of test: functional, cell-based.

What is called IC50 is the concentration that inhibits the measured activity by half.

In brackets after ≈: the same amount, converted by molar mass.

Regarding `O=C1c2c(O)ccc(O)c2C(=O)c2c(NCCNCCO)ccc(NCCNCCO)c21` [MITOXANTRONE], the IC50 stood at 0.023 µg/mL (≈ 0.0517 µM) in test [1] and 0.62 µg/mL (≈ 1.39 µM) in test [3]. For the same compound, the Resistance index in test [2] was determined as 27.

Regarding `Cc1ccc2c3c(nn2CCN(C)C)-c2cnccc2Sc13`, the IC50 is 0.0006 µg/mL (≈ 0.00193 µM) in test [4]; 0.004 µg/mL (≈ 0.0129 µM) in test [5]; 0.009 µg/mL (≈ 0.029 µM) in test [6]; 0.003 µg/mL (≈ 0.00966 µM) in test [7]; 0.018 µg/mL (≈ 0.058 µM) in test [3]. Also, the Resistance index in test [2] worked out at 4.5.

As for `Cc1ccc2c3c(nn2CCN(C)C)-c2ccccc2Sc13`, the IC50 in test [4] stood at 0.07 µg/mL (≈ 0.226 µM); in test [1], 0.7 µg/mL (≈ 2.26 µM); in test [8], 1.7 µg/mL (≈ 5.49 µM). For the same compound, the Resistance index in test [2] was found to be 2.4.

For the compound `Cc1ccc2c3c(nn2CCN(C)C)-c2cccnc2Sc13`, the IC50 in test [4] came to 0.08 µg/mL (≈ 0.258 µM); in test [5], 3.1 µg/mL (≈ 9.99 µM); in test [6], 0.62 µg/mL (≈ 2 µM); in test [7] it was 0.46 µg/mL (≈ 1.48 µM); in test [3], 3.3 µg/mL (≈ 10.6 µM). For the same compound, the Resistance index in test [2] amounted to 1.1.

For `Cc1ccc2nn(CCN(C)C)c3c2c1Sc1ncccc1-3`, the IC50 was 0.26 µg/mL (≈ 0.838 µM) in test [4], 0.33 µg/mL (≈ 1.06 µM) in test [6] and 0.3 µg/mL (≈ 0.966 µM) in test [7].

For the compound `COc1cccc2c1C(=O)c1c(O)c3c(c(O)c1C2=O)C[C@@](O)(C(=O)CO)C[C@@H]3O[C@H]1C[C@H](N)[C@H](O)[C@H](C)O1` [DOXORUBICIN], the IC50 in test [1] was determined as 0.52 µg/mL (≈ 0.957 µM). In test [2], the Resistance index is on record as 97.

As for `Cc1ccc2nn(CCN(C)C)c3c2c1Sc1cnccc1-3`, the IC50 in test [4] amounted to 0.25 µg/mL (≈ 0.805 µM); in test [6], 0.4 µg/mL (≈ 1.29 µM); in test [7] it was 0.35 µg/mL (≈ 1.13 µM).

For `Cc1ccc2c3c(nn2CCN(C)C)-c2ccncc2Sc13`, the IC50 was 0.045 µg/mL (≈ 0.145 µM) in test [4]; 2.3 µg/mL (≈ 7.41 µM) in test [5]; 0.7 µg/mL (≈ 2.25 µM) in test [6]; 0.08 µg/mL (≈ 0.258 µM) in test [7]; 2.3 µg/mL (≈ 7.41 µM) in test [3]. Also, the Resistance index in test [2] was 1.

For `Cc1ccc2nn(CCN(C)C)c3c2c1Sc1ccccc1-3`, the values for the IC50 in test [4], in test [6] and in test [7] were 0.25 µg/mL (≈ 0.808 µM), 0.75 µg/mL (≈ 2.42 µM) and 0.5 µg/mL (≈ 1.62 µM), respectively.
